# Entries after “also recorded” stand apart in the source; their conditions may differ. Where a name gives a salt, the structure may show the parent alone. Read-outs that look alike come from different tables or passages of the source.
# Experiments:
# rat mucosal mast cell = experiment: inhibition of rat mucosal mast cell degranulation in vitro (histamine release); format: cell-based; conditions: read-out: ID20 for histamine release
# Description: It is not necessary to the operability of the present invention that each member of the foregoing classes inhibits mast cell degranulation to the same extent. The ability of a particular substance to inhibit mast cell degranulation can be readily determined empirically. Thus, mast cells from rats (pieces of small intestine) or humans (intestinal biopsies) can be obtained; otherwise, RBL cells or immortalized human mucosal-like mast cells (HMC-1) are kept in culture. Any of these cells then are exposed to various concentrations of a putative inhibitory compound, to allow for action by the putative inhibitor at critical sites. Efficacy with respect to inhibition of mast cell degranulation then is ascertained; that is, the intestinal biopsies, explants or cultured cells thus treated are used as such or washed free of unbound test compound before exposure to a stimulus known to induce mast cell degranulation. A compound suitable for use in accordance with the present invention is recognized as one that prevents the stimulus from causing degranulation, presumably by binding to specific receptors or by inactivating a crucial step in the degranulation process.
# A pharmaceutically effective dose for a given mast cell degranulation-blocking agent can be approximated by its ID20, which is the dose necessary to cause 20% inhibition in mast cells when applied to mast cells stimulated in vitro.
# mast cell = conditions: effective dose causing 20% secretion; cited from earlier work
# [1] = system: rat mast cell protease II (RMCPII); experiment: rat-immobilization assay, stress model, intestinal RMCPII; format: in vivo; conditions: for rat intestinal RMCPII, pre-treated w/ ketotifen: 1 mg/kg i.p. twice daily for four days before immobilization, n = 3
# Experimental: An assay by which efficacy of a mast cell degranulation-blocking agent can be tested systemically in the present context is the rat-immobilization assay, […] After the immobilization, a specific gastrointestinal mast cell mediator, rat mast cell protease II (RMCPII), is measured. This assay is accepted as a non-ulcerogenic model of stress. See Williams et al., Am. J. PhysioI. 253:582-86 (1987).
# Ketotifen was administered intraperitoneally to rats (1 mg/kg body weight, twice daily) for four days prior to immobilization.
# [2] = system: rat mucosal mast cell (MMC); experiment: RMCPII release from rat ileal explants, toxin A; format: cell-based; conditions: for RMCPII released, Ketotifen + Toxin A: ketotifen 1 mg/kg twice daily intragastrically 4 days, toxin A 5 μg/ml, n = 6
# Experimental: The following experiment was performed in order to evaluate rat mucosal mast cell (MMC) degranulation by measuring rat mast cell protease II (RMCPII), a specific marker for MMC, and by electron microscopy.
# Rats were treated intragastrically for four (4) days with either 0.5 ml of saline containing ketotifen (1 mg/kg twice daily) or saline alone. On day five, the animals were euthanized, ileum was removed and ileal explants were placed in organ culture. The explants were incubated at 37° C. in a medium containing either 5 μg/ml of toxin A in 0.01 ml of 50 mM Tris buffer, or buffer alone. Aliquots (50 μl) of medium were collected at specified times and RMCPII levels were determined. Results are expressed in Table 4 as nanograms of RMCPII released per milligram of tissue wet weight (Pothoulakis et al., Gastroenterology 105:701-707, 1993).
# irritable bowel syndrome = experiment: patient treatment, irritable bowel syndrome; format: in vivo, human; conditions: person; for pain: two months
# abdominal migraine [3] = experiment: patient treatment, abdominal migraine; format: in vivo, human; conditions: person; 3 μg/day subcutaneous, four months
# Experimental: A patient with a two-year history of abdominal migraine, experienced constant gastrointestinal pain which was considerably worse immediately premenstrually. After treatment with the Gn-RH analogue LUPRON (3 μg/day subcutaneous injection) for four months, they were symptom-free.
# [4] = system: gastrointestinal mast cells; conditions: cited from earlier work
# intracranial mast cells = conditions: cited from earlier work
# Type 1 phosphatase (PP1) = conditions: cited from earlier work
# PP2A = conditions: cited from earlier work
# PP2B = conditions: cited from earlier work
# PP2C = conditions: cited from earlier work
# [5] = system: rat basophilic leukemia (RBL) cells; conditions: Kouretas et al. 1991; cited from earlier work
# abdominal migraine [6] = conditions: in vivo; cited from earlier work
# [7] = inhibitory dose causing 20% inhibition, rat mucosal mast cells in vitro
compound,measurement,setting,value
CN1CCC(=C2c3ccccc3CCc3cccnc32)CC1 [Azatadine],IC20,rat mucosal mast cell; [7],0.1 µM
CN(C)CCC(c1ccc(Cl)cc1)c1ccccn1 (centres unmarked) [Clorphenyramine],ED20 for Histamine Release,mast cell,10^-3 M
CN(C)CCOC(c1ccccc1)c1ccccc1 [Diphenhydramine],ED20 for Histamine Release,mast cell,10^-3 M
CN1CCC(=C2c3ccccc3CC(=O)c3sccc32)CC1 [Ketotifen],IC20,rat mucosal mast cell; Rattus norvegicus,10 µM
same,"rat intestinal RMCPII, pre-treated w/ ketotifen",[1]; 60 min,0.5 ng/mL
same,"rat intestinal RMCPII, pre-treated w/ ketotifen","[1]; 120 min, p < 0.001 vs. immobilized",0.8 ng/mL
same,secretion of RMCPII during stress (in words),[1]; rat-immobilization assay,preventing secretion of RMCPII
same,"RMCPII released, Ketotifen + Toxin A",[2]; 30 min,2.9 ± 1.0 nanograms of RMCPII released p
same,"RMCPII released, Ketotifen + Toxin A","[2]; 60 min, p < 0.05 vs Toxin A",3.0 ± 1.1 nanograms of RMCPII released p
same,"RMCPII released, Ketotifen + Toxin A","[2]; 120 min, p < 0.01 vs Toxin A",4.2 ± 0.9 nanograms of RMCPII released p
same,"RMCPII released, Ketotifen + Toxin A","[2]; 180 min, p < 0.01 vs Toxin A",6.7 ± 1.9 nanograms of RMCPII released p
same,release of RMCPII from rat ileal explants (in words),[2]; toxin A stimulus,effectively inhibits the release of RMCPII
same,pain,irritable bowel syndrome; 4 mg/day,their pain subsided significantly
"CCNC(=O)[C@@H]1CCCN1C(=O)[C@H](CCCNC(=N)N)NC(=O)[C@H](CC(C)C)NC(=O)[C@@H](CC(C)C)NC(=O)[C@H](Cc1ccc(O)cc1)NC(=O)[C@H](CO)NC(=O)[C@H](Cc1c[nH]c2ccccc12)NC(=O)[C@H](Cc1c[nH]cn1)NC(=O)[C@@H]1CCC(=O)N1 [LUPRON, leuprolide acetate]",symptoms of abdominal migraine,abdominal migraine [3],symptom-free
CNCCc1c[nH]cn1 [N^α -methyl histamine],IC20,rat mucosal mast cell; Rattus norvegicus,0.1 µM
O=c1[nH]c2ccccc2n1CCCN1CCN(C(c2ccccc2)c2ccccc2)CC1 [Oxatomide],IC20,rat mucosal mast cell; [7],0.1 µM
CC(CN1c2ccccc2Sc2ccccc21)N(C)C (centres unmarked) [Promethazine],ED20 for Histamine Release,mast cell,10^-4 M
O=C(O)c1cc(=O)c2c(OCC(O)COc3cccc4oc(C(=O)O)cc(=O)c34)cccc2o1 [disodium cromoglycate],inhibition of gastrointestinal / mucosal mast cells,[4],the former but not the latter are inhibited; also recorded: do not have an inhibitory effect specifically on mucosal mast cells
same,inhibition of intracranial mast cells,intracranial mast cells,inhibited
OCCOCCN1CCN(C(c2ccccc2)c2ccc(Cl)cc2)CC1 (centres unmarked) [hydroxyzine hydrochloride],gastrointestinal discomfort,"irritable bowel syndrome; 50 mg/day, three months",almost completely eliminated
same,professional and family responsibilities,"irritable bowel syndrome; 50 mg/day, three months",able to resume their professional and family responsibilities
same,symptoms of irritable bowel syndrome on withdrawal,irritable bowel syndrome; attempted withdrawal,marked increase in symptoms of irritable bowel syndrome
same,symptoms on resuming the medication,irritable bowel syndrome; resumed medication,symptoms disappeared
OCCOCCN1CCN(C(c2ccccc2)c2ccc(Cl)cc2)CC1 (centres unmarked) [hydroxyzine pamoate],professional activities,"irritable bowel syndrome; 50 mg/day, 4 months",able to resume their professional activities
same,symptoms of irritable bowel syndrome,"irritable bowel syndrome; 50 mg/day, 4 months",noticeable improvement of their symptoms
C=C1[C@@H](O)[C@@H]2O[C@]3(CC[C@H](/C=C/[C@@H](C)[C@@H]4CC(C)=C[C@@]5(O[C@H](C[C@@](C)(O)C(=O)O)CC[C@H]5O)O4)O3)CC[C@H]2O[C@@H]1[C@@H](O)C[C@H](C)[C@H]1O[C@@]2(CCCCO2)CC[C@H]1C [okadaic acid],effect on PP1,Type 1 phosphatase (PP1),inactivated
same,effect on PP2A,PP2A,inhibited
same,effect on PP2B,PP2B,inhibited
same,effect on PP2C,PP2C,insensitive
CC(=O)[C@H]1CC[C@H]2[C@@H]3CCC4=CC(=O)CC[C@]4(C)[C@H]3CC[C@]12C [progesterone],binding to RBL cells,[5],bind
CC(C)NCC(O)COc1cccc2ccccc12 (centres unmarked) [propranolol],effect in abdominal migraine,abdominal migraine [6],seem not to work
CC/C(=C(\c1ccccc1)c1ccc(OCCN(C)C)cc1)c1ccccc1 [tamoxifen citrate],pain,irritable bowel syndrome; 40 mg/day orally,substantially eliminated their pain

# — US5648355A, “Method of treatment of endogenous, painful gastrointestinal conditions of non-inflammatory, non-ulcerative origin” (priority 1994, dated 1997)
